Measurements published in article PMC4079752 (Clinical cancer research : an official journal of the …, 2014).

Target: bacterial β-glucuronidase (E. coli GUS) (Escherichia coli, UniProt P05804)
Test: GUS enzyme activity assay with purified enzyme
Format: biochemical

bacterial β-glucuronidase (E. coli GUS), sequence (P05804 whole entry): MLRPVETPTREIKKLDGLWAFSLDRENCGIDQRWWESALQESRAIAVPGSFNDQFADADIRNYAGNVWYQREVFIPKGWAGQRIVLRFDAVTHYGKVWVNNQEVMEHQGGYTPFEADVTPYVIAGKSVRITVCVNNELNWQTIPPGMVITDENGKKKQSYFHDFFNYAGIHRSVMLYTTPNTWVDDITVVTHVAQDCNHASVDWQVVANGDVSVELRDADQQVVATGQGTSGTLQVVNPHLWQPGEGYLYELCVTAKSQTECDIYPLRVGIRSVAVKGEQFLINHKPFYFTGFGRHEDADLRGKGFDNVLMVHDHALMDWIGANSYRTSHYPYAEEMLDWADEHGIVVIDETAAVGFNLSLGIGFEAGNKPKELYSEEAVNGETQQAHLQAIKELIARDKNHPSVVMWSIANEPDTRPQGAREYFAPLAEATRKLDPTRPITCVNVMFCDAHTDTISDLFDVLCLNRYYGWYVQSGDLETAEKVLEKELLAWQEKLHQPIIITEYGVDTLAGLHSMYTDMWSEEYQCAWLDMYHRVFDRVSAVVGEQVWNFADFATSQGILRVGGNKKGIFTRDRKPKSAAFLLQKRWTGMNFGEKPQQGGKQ

SMILES: Oc1ccc2c(c1)N=C(N1CCNCC1)c1cc(Cl)ccc1O2 [8-OHAMOX, 8-hydroxyamoxapine]
- IC50: 1.99 µM

SMILES: Oc1ccc2c(c1)Oc1ccc(Cl)cc1C(N1CCNCC1)=N2 [7-OHAMOX, 7-hydroxyamoxapine]
- IC50: 0.981 ± 0.183 µM
